These are literature values, as cited in patent US20050261237A1, “Nucleoside phosphonate analogs” (priority 2003, published 2005).

The target of data set [1] is PNP enzyme from Mycobacterium tuberculosis (MtPNP) (Mycobacterium tuberculosis, UniProt P9WP01). The settings on record: Lewandowics A. et al., Biochemistry (2003) 42, 6057.
Data set [2] deals with HIV. The settings on record: described in the literature; 61.1 with Base=G.

Chain of PNP enzyme from Mycobacterium tuberculosis (MtPNP) (P9WP01 whole entry): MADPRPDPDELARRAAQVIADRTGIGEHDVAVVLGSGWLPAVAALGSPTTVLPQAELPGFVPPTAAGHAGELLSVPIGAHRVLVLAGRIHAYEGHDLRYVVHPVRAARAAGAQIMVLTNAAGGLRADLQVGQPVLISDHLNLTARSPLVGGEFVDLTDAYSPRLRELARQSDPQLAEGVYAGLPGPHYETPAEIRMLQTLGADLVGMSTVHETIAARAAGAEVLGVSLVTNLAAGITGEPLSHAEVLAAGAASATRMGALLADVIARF

For the compound `Nc1nc2c(CN3C[C@H](CO)[C@@H](O)C3)c[nH]c2c(=O)[nH]1` [DADMe-ImmG], in data set [1], the “inhibition of the PNP enzyme from Mycobacterium tuberculosis (MtPNP)” value is reported as “highly potent”.

Take `Nc1nc(=O)c2ncn([C@@H]3C[C@H](CO)[C@H]3CO)c2[nH]1` [lubocavir]: in data set [2], the anti-HIV activity was 30 µM.
